Measured values taken from US20070149456A1, “Epithelial sodium channel inhibiting agents and uses therefor” (University of Pittsburgh, priority 2005, published 2007).
“And” between values parts separate entries of the source, which are not always exact repeats. Equal entries are not always repeated. “Also recorded” adds a separate entry of the source. Where two headings read alike, the source gives them in different places.

Molecular target: T1, endogenous ENaC in HAE cells (Homo sapiens, UniProt P37088+P51168+P51170)
T1 construct: endogenous in cells; host or cells: primary human airway (bronchial) epithelial cells from transplant or donor lungs
T1 sequence (P37088 1-178): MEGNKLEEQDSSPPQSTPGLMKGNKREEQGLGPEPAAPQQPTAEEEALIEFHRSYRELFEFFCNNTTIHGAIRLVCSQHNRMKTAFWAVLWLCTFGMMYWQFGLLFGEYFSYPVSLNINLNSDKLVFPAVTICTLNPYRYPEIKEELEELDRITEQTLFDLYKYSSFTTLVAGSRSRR
T1 sequence (P37088 205-669): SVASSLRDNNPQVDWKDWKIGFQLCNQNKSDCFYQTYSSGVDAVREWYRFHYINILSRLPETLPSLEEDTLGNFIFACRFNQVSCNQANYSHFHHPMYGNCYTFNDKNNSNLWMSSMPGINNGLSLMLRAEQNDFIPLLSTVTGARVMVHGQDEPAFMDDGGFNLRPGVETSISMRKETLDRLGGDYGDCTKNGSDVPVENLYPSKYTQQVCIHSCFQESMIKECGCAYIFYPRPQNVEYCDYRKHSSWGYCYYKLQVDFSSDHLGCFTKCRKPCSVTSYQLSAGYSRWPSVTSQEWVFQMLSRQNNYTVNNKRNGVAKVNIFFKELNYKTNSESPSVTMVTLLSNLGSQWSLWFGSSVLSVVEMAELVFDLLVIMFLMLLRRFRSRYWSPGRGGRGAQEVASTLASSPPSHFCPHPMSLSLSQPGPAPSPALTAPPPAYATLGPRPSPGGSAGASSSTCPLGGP
T1 sequence (P51168 whole entry): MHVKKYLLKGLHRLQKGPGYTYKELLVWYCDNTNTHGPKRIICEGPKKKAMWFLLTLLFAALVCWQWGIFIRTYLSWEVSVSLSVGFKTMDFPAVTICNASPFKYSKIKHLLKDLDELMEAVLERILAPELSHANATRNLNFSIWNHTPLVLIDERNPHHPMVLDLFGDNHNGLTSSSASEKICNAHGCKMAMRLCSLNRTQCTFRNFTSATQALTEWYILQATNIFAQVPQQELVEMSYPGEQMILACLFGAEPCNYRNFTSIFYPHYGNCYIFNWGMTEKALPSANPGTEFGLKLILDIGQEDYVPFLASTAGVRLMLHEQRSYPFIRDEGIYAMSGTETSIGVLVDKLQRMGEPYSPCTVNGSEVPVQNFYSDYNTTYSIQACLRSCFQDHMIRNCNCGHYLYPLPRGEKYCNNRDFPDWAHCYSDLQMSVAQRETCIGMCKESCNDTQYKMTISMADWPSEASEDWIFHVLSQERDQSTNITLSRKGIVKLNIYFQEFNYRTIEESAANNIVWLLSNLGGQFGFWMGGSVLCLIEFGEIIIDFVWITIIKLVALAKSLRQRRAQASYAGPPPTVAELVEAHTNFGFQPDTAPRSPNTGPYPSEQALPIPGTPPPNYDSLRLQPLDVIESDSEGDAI
T1 sequence (P51170 1-138): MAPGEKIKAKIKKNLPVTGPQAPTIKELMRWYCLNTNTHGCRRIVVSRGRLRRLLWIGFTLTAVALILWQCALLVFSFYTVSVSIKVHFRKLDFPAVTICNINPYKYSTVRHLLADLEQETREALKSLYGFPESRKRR
T1 sequence (P51170 182-649): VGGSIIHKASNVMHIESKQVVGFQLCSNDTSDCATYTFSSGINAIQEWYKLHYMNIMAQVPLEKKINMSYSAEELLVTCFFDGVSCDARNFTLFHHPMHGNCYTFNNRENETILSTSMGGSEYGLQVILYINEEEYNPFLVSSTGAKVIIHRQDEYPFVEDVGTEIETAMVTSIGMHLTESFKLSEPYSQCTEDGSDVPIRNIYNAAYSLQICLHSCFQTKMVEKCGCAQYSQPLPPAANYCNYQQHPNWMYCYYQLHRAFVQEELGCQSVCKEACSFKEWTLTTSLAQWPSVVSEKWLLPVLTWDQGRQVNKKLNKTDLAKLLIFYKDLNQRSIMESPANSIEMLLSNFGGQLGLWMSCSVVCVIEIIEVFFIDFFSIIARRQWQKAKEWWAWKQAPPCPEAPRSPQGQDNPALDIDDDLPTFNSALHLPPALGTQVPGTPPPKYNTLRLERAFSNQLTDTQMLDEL
Assay: Amiloride-sensitive short circuit current in primary human airway epithelial (HAE) cell monolayers, Ussing chamber
Format: cell-based
Conditions: for inhibition of amiloride sensitive short circuit currents: HAE, increasing concentrations of peptide; for Ki: HBE cells
From the text: Primary Cultures of HAE Cells—HAE cells were obtained from excess pathological tissue remaining after lung transplantation or from organ donor lungs deemed not suitable for transplantation under a protocol approved by the University of Pittsburgh […] Review Board. All cells were isolated from second through sixth generation bronchi and grown on permeable Transwell supports (Coming Inc.) as previously described (Devor, D. C., and Pilewski, J. M. (1999), UTP inhibits Na^+ absorption in wild-type and DeltaF508 CFTR-expressing human bronchial epithelia, Am. J. Physiol. 276, C827-C837 31. ).
Short Circuit Current Measurements—Cell culture inserts were mounted in modified Ussing chambers (Harvard Apparatus, Holliston, Mass.), and the monolayers were continuously short-circuited with a voltage/current clamp system (Physiologic Instruments, San Diego, Calif.). A 2-mV bipolar pulse was applied periodically to measure the resistance of the monolayer. As previously described by Bridges et al. (Bridges, R. J., Newton, B. B., Pilewski, J. M., Devor, D. C., Poll, C. T., and Hall, R. L. (2001), Na+ transport in normal and CF human bronchial epithelial cells is inhibited by BAY 39-9437, Am. J. Physiol. 281, L16-L23 32, Na^+ transport in normal and CF human bronchial epithelial cells is inhibited by BAY 39-9437), the bath solution contained (in mM) 120 NaCl, 25 NaHCO3, 3.3 KH2PO4, 0.8 K2HPO4, 1.2 MgCl2, 1.2 CaCl2, and 10 glucose. The pH of this solution was 7.4 when gassed with a mixture of 95% O2-5% CO2 at 37° C.
Primary cultures of HAE cells grown on permeable membrane supports and mounted in modified Ussing chambers were continuously short-circuited by a voltage clamp amplifier (Physiologic Instruments, San Diego, Calif.). Monolayers were exposed to increasing concentrations of either the γ-peptide (closed circles) or a scrambled peptide (open circles). […] (n=8-9).
Vectors and Cell Culture—Wild-type, C-terminal and double epitope tagged mouse ENaC subunit cDNAs were previously described (Hughey, R. P., Mueller, G. M., Bruns, J. B., Kinlough, C. L., Poland, P. A., Harkleroad, K. L., Carattino, M. D., and Kleyman, T. R. (2003) J Biol Chem 278, 37073-37082 and Ahn, Y. J., Brooker, D. R., Kosari, F., Harte, B. J., Li, J., Mackler, S. A., and Kleyman, T. R. (1999), Cloning and functional expression of the mouse epithelial sodium channel, Am J Physiol 277, F121-129). The γ subunit mutations were generated in pcDNA3.1 (+) using a standard two-step PCR method. A cDNA clone (IMAGE #: 3600399) encoding full length mouse prostasin was obtained from Open Biosystems (Huntsville, Ala.) and sub-cloned into pcDNA3.1 (+) (Invitrogen, Carlsbad, Calif.). MDCK type 1 cells were a gift from Barry M. Gumbiner (Memorial Sloan-Kettering Cancer Center, New York) and were cultured as previously described (Lavelle, J. P., Negrete, H. O., Poland, P. A., Kinlough, C. L., Meyers, S. D., Hughey, R. P., and Zeidel, M. L. (1997), Low permeabilities of MDCK cell monolayers: a model barrier epithelium, Am J Physiol 273, F67-75). CCD (mpkCCDc14) cells were a gift from Alain Vandewalle (Institut National de la Santéet de la Recherche Médicale, Paris, France) and were cultured as previously described (Bens, M., Vallet, V., Cluzeaud, F., Pascual-Letallec, L., Kahn, A., Rafestin-Oblin, M. E., Rossier, B. C., and Vandewalle, A. (1999) J Am Soc Nephrol 10, 923-934). HAE cells were isolated and cultured as described (Devor, D. C., Bridges, R. J., and Pilewski, J. M. (2000), Pharmacological modulation of ion transport across wild-type and DeltaF508 CFTR-expressing human bronchial epithelia, Am J Physiol Cell Physiol 279, C461-479). […]

| Substance | IC50 (HAE primary cultures, nonlinear curve fitting, read-out: IC50, inhibition of short circuit currents) | inhibition of amiloride sensitive short circuit currents (listed as γ cleavage product) | inhibition of amiloride sensitive short circuit currents (listed as γ-peptide) | Ki (stated jointly for HBE and mpkCCDc14, read-out: apparent Ki, inhibition of endogenous ENaC activity) [µM] | Ki (stated jointly for HBE or mpkCCDc14, read-out: Ki, block of endogenous ENaC activity) [µM] |
| --- | --- | --- | --- | --- | --- |
| Ac-EAGSMRSTWEGTPPRFLNLIPLLVFNENEKGKARDFFTGRKRK-NH2 [γ-43] | 2 µM and 2 to 3 µM | inhibited in a dose dependent manner | potent inhibitor; also recorded: strong inhibition | ~2 |  |
| Ac-DLRGALPHPLQRLRTPPPPNPARSAR-NH2 [α-26] |  |  |  |  | 50 to 100 |
